According to patent US8952024B2, “Herbicidal pyrimidone derivatives” (E I du Pont de Nemours and Company, priority 2009, dated 2015):

What was measured:
Type in all cases: in vivo
[1] = tested on: Surinam grass (Brachiaria decumbens); test: Test B pre-/postemergence plant response; details: for Plant response rating, Surinam Grass: Postemergence; for Surinam Grass plant response rating (0 to 100 scale): 62 g ai/ha, postemergence, 0 is no effect, 100 is complete control
Outline: (§1)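 Each species received compound formulated in non-phytotoxic solvent with surfactant, either at planting into a loam and sand blend or as a foliar spray once plants reached 2 to 18 cm in peat-based medium. Plants stayed in the greenhouse 13 to 15 days before visual evaluation against controls, scored 0 (no effect) to 100 (complete control).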

[2] = tested on: bermudagrass (Cynodon dactylon); test: Test B pre-/postemergence plant response; details: for Plant response rating, Bermudagrass: Postemergence; for Bermudagrass plant response rating (0 to 100 scale): 62 g ai/ha, postemergence, 0 is no effect, 100 is complete control
Outline: as §1

[3] = tested on: downy bromegrass (Bromus tectorum); test: Test B pre-/postemergence plant response; details: for Plant response rating, Bromegrass, Downy: Postemergence; for Bromegrass, Downy plant response rating (0 to 100 scale): 62 g ai/ha, postemergence, 0 is no effect, 100 is complete control
Outline: as §1

[4] = tested on: lambsquarters (Chenopodium album); test: Test B pre-/postemergence plant response; details: for Plant response rating, Lambsquarters: Postemergence; for Lambsquarters plant response rating (0 to 100 scale): 62 g ai/ha, postemergence, 0 is no effect, 100 is complete control
Outline: as §1

[5] = tested on: pigweed (Amaranthus retroflexus); test: Test B pre-/postemergence plant response; details: for Plant response rating, Pigweed: Postemergence; for Pigweed plant response rating (0 to 100 scale): 62 g ai/ha, postemergence, 0 is no effect, 100 is complete control
Outline: as §1

[6] = tested on: wheat (Triticum aestivum); test: Test B pre-/postemergence plant response; details: for Plant response rating, Wheat: Postemergence; for Wheat plant response rating (0 to 100 scale): 62 g ai/ha, postemergence, 0 is no effect, 100 is complete control
Outline: as §1

[7] = tested on: woolly cupgrass (Eriochloa villosa); test: Test B pre-/postemergence plant response; details: for Plant response rating, Cupgrass, Woolly: Postemergence; for Cupgrass, Woolly plant response rating (0 to 100 scale): 62 g ai/ha, postemergence, 0 is no effect, 100 is complete control
Outline: as §1

[8] = tested on: yellow nutsedge (Cyperus esculentus); test: Test B pre-/postemergence plant response; details: for Plant response rating, Nutsedge, Yellow: Postemergence; for Nutsedge, Yellow plant response rating (0 to 100 scale): 62 g ai/ha, postemergence, 0 is no effect, 100 is complete control
Outline: as §1

[9] = tested on: barnyardgrass (Echinochloa crus-galli); test: Test B flooded paddy test; details: for Plant response rating, Flood, Barnyardgrass: 250 g ai/ha, flooded paddy test, visual rating on 0 to 100 scale (0 no effect, 100 complete control) after 13 to 15 days; for Plant response rating, Barnyardgrass: Flood (flooded paddy test), 62 g ai/ha, scale of 0 to 100 where 0 is no effect and 100 is complete control, 13 to 15 days
Outline: (§2)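 Each compound is added to standing floodwater (3 cm above soil, maintained) in pots of 2-leaf-stage plants; greenhouse exposure lasts 13–15 d before visual comparison with controls on a 0–100 control scale.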

[10] = tested on: ducksalad (Heteranthera limosa); test: Test B flooded paddy test; details: for Plant response rating, Flood, Ducksalad: 250 g ai/ha, flooded paddy test, visual rating on 0 to 100 scale (0 no effect, 100 complete control) after 13 to 15 days; for Plant response rating, Ducksalad: Flood (flooded paddy test), 62 g ai/ha, scale of 0 to 100 where 0 is no effect and 100 is complete control, 13 to 15 days
Outline: as §2

rice (Oryza sativa) = test: Test B flooded paddy test; details: for Plant response rating, Flood, Rice: 250 g ai/ha, flooded paddy test, visual rating on 0 to 100 scale (0 no effect, 100 complete control) after 13 to 15 days; for Plant response rating, Rice: Flood (flooded paddy test), 62 g ai/ha, scale of 0 to 100 where 0 is no effect and 100 is complete control, 13 to 15 days
Outline: as §2

[11] = tested on: umbrella sedge (Cyperus difformis); test: Test B flooded paddy test; details: for Plant response rating, Flood, Sedge, Umbrella: 250 g ai/ha, flooded paddy test, visual rating on 0 to 100 scale (0 no effect, 100 complete control) after 13 to 15 days; for Plant response rating, Sedge, Umbrella: Flood (flooded paddy test), 62 g ai/ha, scale of 0 to 100 where 0 is no effect and 100 is complete control, 13 to 15 days
Outline: as §2

[12] = 31 g ai/ha, 0 to 100 scale (0 no effect, 100 complete control)
[13] = 125 g ai/ha, scale 0 to 100 (0 no effect, 100 complete control)
[14] = 250 g ai/ha, scale 0 to 100 (0 no effect, 100 complete control), 13 to 15 days

Compound | Surinam Grass plant response rating (0 to 100 scale) ([1]; 13 to 15 days) | Plant response rating, Surinam Grass [1, 12] | Plant response rating, Surinam Grass [1, 13] | Bermudagrass plant response rating (0 to 100 scale) ([2]; 13 to 15 days) | Plant response rating, Bermudagrass [2, 12] | Plant response rating, Bermudagrass [2, 13] | Bromegrass, Downy plant response rating (0 to 100 scale) ([3]; 13 to 15 days) | Plant response rating, Bromegrass, Downy [3, 12] | Plant response rating, Bromegrass, Downy [3, 13] | Lambsquarters plant response rating (0 to 100 scale) ([4]; 13 to 15 days) | Plant response rating, Lambsquarters [4, 12] | Plant response rating, Lambsquarters [4, 13] | Pigweed plant response rating (0 to 100 scale) ([5]; 13 to 15 days) | Plant response rating, Pigweed [5, 12] | Plant response rating, Pigweed [5, 13] | Wheat plant response rating (0 to 100 scale) ([6]; 13 to 15 days) | Plant response rating, Wheat [6, 12] | Plant response rating, Wheat [6, 13] | Cupgrass, Woolly plant response rating (0 to 100 scale) ([7]; 13 to 15 days) | Plant response rating, Cupgrass, Woolly [7, 12] | also measured
O=C1CCCC(O)=C1C(=O)c1cnc(-c2ccccc2)n(C2CCCC2)c1=O [Compound 131] | 60 | 20 | 65 | 75 | 65 | 85 | 0 | 0 | 0 | 95 | 85 | 98 | 95 | 90 | 100 | 0 | 0 | 0 | 60 | 50 | Plant response rating, Surinam Grass ([1]; 16 g ai/ha, 0 to 100 scale): 15; Plant response rating, Bermudagrass ([2]; 16 g ai/ha, 0 to 100 scale): 60; Plant response rating, Bromegrass, Downy ([3]; 16 g ai/ha, 0 to 100 scale): 0; Plant response rating, Lambsquarters ([4]; 16 g ai/ha, 0 to 100 scale): 75; Plant response rating, Pigweed ([5]; 16 g ai/ha, 0 to 100 scale): 60; Plant response rating, Wheat ([6]; 16 g ai/ha, 0 to 100 scale): 0; Plant response rating, Cupgrass, Woolly ([7]; 16 g ai/ha, 0 to 100 scale): 10; Plant response rating, Cupgrass, Woolly [7, 13]: 65; Plant response rating, Nutsedge, Yellow ([8]; 16 g ai/ha, 0 to 100 scale): 0; Nutsedge, Yellow plant response rating (0 to 100 scale) ([8]; 13 to 15 days): 25; Plant response rating, Nutsedge, Yellow [8, 12]: 15; Plant response rating, Nutsedge, Yellow [8, 13]: 45; Plant response rating, Flood, Barnyardgrass [9]: 50; Plant response rating, Barnyardgrass [9]: 20; Plant response rating, Flood, Ducksalad [10]: 85; Plant response rating, Ducksalad [10]: 40; Plant response rating, Flood, Rice (rice (Oryza sativa)): 55; Plant response rating, Rice (rice (Oryza sativa)): 25; Plant response rating, Flood, Sedge, Umbrella [11]: 85; Plant response rating, Sedge, Umbrella [11]: 20
COCCCn1c(-c2cccc(Br)c2)ncc(C(=O)C2=C(O)CCCC2=O)c1=O [Compound 140] | 50 | 50 | 55 | 75 | 60 | 85 | 5 | 0 | 5 | 60 | 45 | 75 | 70 | 55 | 75 | 5 | 5 | 10 | 50 | 50 | Plant response rating, Surinam Grass [1, 14]: 65; Plant response rating, Bermudagrass [2, 14]: 90; Plant response rating, Bromegrass, Downy [3, 14]: 20; Plant response rating, Lambsquarters [4, 14]: 80; Plant response rating, Pigweed [5, 14]: 98; Plant response rating, Wheat [6, 14]: 15; Plant response rating, Cupgrass, Woolly [7, 13]: 65; Plant response rating, Cupgrass, Woolly [7, 14]: 65; Nutsedge, Yellow plant response rating (0 to 100 scale) ([8]; 13 to 15 days): 45; Plant response rating, Nutsedge, Yellow [8, 12]: 10; Plant response rating, Nutsedge, Yellow [8, 13]: 65; Plant response rating, Nutsedge, Yellow [8, 14]: 75; Plant response rating, Flood, Barnyardgrass [9]: 45; Plant response rating, Barnyardgrass [9]: 20; Plant response rating, Flood, Ducksalad [10]: 85; Plant response rating, Ducksalad [10]: 50; Plant response rating, Flood, Rice (rice (Oryza sativa)): 40; Plant response rating, Rice (rice (Oryza sativa)): 0; Plant response rating, Flood, Sedge, Umbrella [11]: 85; Plant response rating, Sedge, Umbrella [11]: 75
